Results from patent US9981959B2, “Thiazolyl and oxazolyl urea, thiourea, guanidine and cyanoguanidine compounds as TrkA kinase inhibitors” (Array BioPharma Inc., priority 2012, dated 2018).

Assays:
[1] = biological target: T1, TrkA (Homo sapiens, UniProt P04629); experiment: KinaseProfiler off-target kinase profiling; format: biochemical; parameters: purchased Millipore, Inc. (KinaseProfiler service); conditions: 10 μM, ATP near Km
Method: A representative compound of the invention (Example 2) was tested for off-target kinase activity at a concentration of 10 μM by Millipore, Inc. in their KinaseProfiler™ service against all the kinases available in their full kinase panel. The compound was run in duplicate at a concentration of ATP near the Km for each individual kinase according to Millipore's specifications.

[2] = biological target: T2, PRKG1beta (Homo sapiens, UniProt Q13976); experiment: KinaseProfiler off-target kinase profiling; format: biochemical; conditions: 10 μM, ATP near Km
T2 construct: purchased Millipore, Inc. (KinaseProfiler service)
Procedure, shortened: (§1)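 Each kinase is assayed with ATP close to its own Km in the presence of 10 μM compound, in duplicate. The two replicates are averaged and expressed as percent of control.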

[3] = biological target: T3, MKK7beta (Homo sapiens, UniProt O14733); experiment: KinaseProfiler off-target kinase profiling; format: biochemical; conditions: 10 μM, ATP near Km
T3 construct: purchased Millipore, Inc. (KinaseProfiler service)
Procedure, shortened: as §1

[4] = biological target: T4, Tie2 (Homo sapiens, UniProt Q02763); experiment: KinaseProfiler off-target kinase profiling; format: biochemical; conditions: 10 μM, ATP near Km
T4 construct: purchased Millipore, Inc. (KinaseProfiler service)
Procedure, shortened: as §1

[5] = test system: CK1_y; experiment: KinaseProfiler off-target kinase profiling; format: biochemical; conditions: 10 μM, ATP near Km
Procedure, shortened: as §1

[6] = biological target: T5, Fer (Homo sapiens, UniProt P16591); experiment: KinaseProfiler off-target kinase profiling; format: biochemical; conditions: 10 μM, ATP near Km
T5 construct: purchased Millipore, Inc. (KinaseProfiler service)
Procedure, shortened: as §1

[7] = biological target: T6, p38alpha (Homo sapiens, UniProt Q16539); experiment: KinaseProfiler off-target kinase profiling; format: biochemical; conditions: 10 μM, ATP near Km
T6 construct: purchased Millipore, Inc. (KinaseProfiler service)
Procedure, shortened: as §1

[8] = biological target: T7, EphA7 (Rattus norvegicus, UniProt P54759); experiment: KinaseProfiler off-target kinase profiling; format: biochemical; conditions: 10 μM, ATP near Km
T7 construct: purchased Millipore, Inc. (KinaseProfiler service)
Procedure, shortened: as §1

[9] = biological target: T8, CAMK1 (Homo sapiens, UniProt Q14012); experiment: KinaseProfiler off-target kinase profiling; format: biochemical; conditions: 10 μM, ATP near Km
T8 construct: purchased Millipore (KinaseProfiler service)
Procedure, shortened: as §1

[10] = biological target: T9, TSSK2 (Homo sapiens, UniProt Q96PF2); experiment: KinaseProfiler off-target kinase profiling; format: biochemical; conditions: 10 μM, ATP near Km
T9 construct: purchased Millipore, Inc. (KinaseProfiler service)
Procedure, shortened: as §1

[11] = biological target: T10, ARK5 (Homo sapiens, UniProt O60285); experiment: KinaseProfiler off-target kinase profiling; format: biochemical; conditions: 10 μM, ATP near Km
T10 construct: purchased Millipore (KinaseProfiler service)
Procedure, shortened: as §1

[12] = biological target: T11, IR (Homo sapiens, UniProt P06213); experiment: KinaseProfiler off-target kinase profiling; format: biochemical; conditions: 10 μM, ATP near Km
T11 construct: purchased Millipore, Inc. (KinaseProfiler service)
Procedure, shortened: as §1

[13] = biological target: T12, EphB3 (Homo sapiens, UniProt P54753); experiment: KinaseProfiler off-target kinase profiling; format: biochemical; conditions: 10 μM, ATP near Km
T12 construct: purchased Millipore, Inc. (KinaseProfiler service)
Procedure, shortened: as §1

[14] = biological target: T13, CAMK2b (Homo sapiens, UniProt Q13554); experiment: KinaseProfiler off-target kinase profiling; format: biochemical; conditions: 10 μM, ATP near Km
T13 construct: purchased Millipore (KinaseProfiler service)
Procedure, shortened: as §1

[15] = biological target: T14, IKKalpha (Homo sapiens, UniProt O15111); experiment: KinaseProfiler off-target kinase profiling; format: biochemical; conditions: 10 μM, ATP near Km
T14 construct: purchased Millipore, Inc. (KinaseProfiler service)
Procedure, shortened: as §1

[16] = biological target: T15, Lyn (Homo sapiens, UniProt P07948); experiment: KinaseProfiler off-target kinase profiling; format: biochemical; conditions: 10 μM, ATP near Km
T15 construct: purchased Millipore, Inc. (KinaseProfiler service)
Procedure, shortened: as §1

[17] = biological target: T16, MARK1 (Homo sapiens, UniProt Q9P0L2); experiment: KinaseProfiler off-target kinase profiling; format: biochemical; conditions: 10 μM, ATP near Km
T16 construct: purchased Millipore, Inc. (KinaseProfiler service)
Procedure, shortened: as §1

[18] = biological target: T17, MAP3K5 (Homo sapiens, UniProt Q99683); experiment: KinaseProfiler off-target kinase profiling; format: biochemical; conditions: 10 μM, ATP near Km
T17 construct: purchased Millipore, Inc. (KinaseProfiler service)
Procedure, shortened: as §1

[19] = biological target: T18, MAPKAP-K2 (Homo sapiens, UniProt P49137); experiment: KinaseProfiler off-target kinase profiling; format: biochemical; conditions: 10 μM, ATP near Km
T18 construct: purchased Millipore, Inc. (KinaseProfiler service)
Procedure, shortened: as §1

[20] = biological target: T19, EphA1 (Homo sapiens, UniProt P21709); experiment: KinaseProfiler off-target kinase profiling; format: biochemical; conditions: 10 μM, ATP near Km
T19 construct: purchased Millipore, Inc. (KinaseProfiler service)
Procedure, shortened: as §1

[21] = biological target: T20, SRPK1 (Homo sapiens, UniProt Q96SB4); experiment: KinaseProfiler off-target kinase profiling; format: biochemical; conditions: 10 μM, ATP near Km
T20 construct: purchased Millipore, Inc. (KinaseProfiler service)
Procedure, shortened: as §1

[22] = biological target: T21, SRC (Homo sapiens, UniProt P12931); experiment: KinaseProfiler off-target kinase profiling; format: biochemical; conditions: 10 μM, ATP near Km
T21 construct: purchased Millipore, Inc. (KinaseProfiler service)
Procedure, shortened: as §1

[23] = biological target: T22, CDK9/cyclinT1 (Homo sapiens, UniProt P50750); experiment: KinaseProfiler off-target kinase profiling; format: biochemical; conditions: 10 μM, ATP near Km
T22 construct: purchased Millipore, Inc. (KinaseProfiler service)
Procedure, shortened: as §1

[24] = biological target: T23, CK2alpha2 (Homo sapiens, UniProt P19784); experiment: KinaseProfiler off-target kinase profiling; format: biochemical; conditions: 10 μM, ATP near Km
T23 construct: purchased Millipore, Inc. (KinaseProfiler service)
Procedure, shortened: as §1

[25] = biological target: T1, TrkA; experiment: TrkA LanthaScreen Eu Kinase Binding Assay; parameters: 6HIS tagged cytoplasmic domain from Invitrogen, Cat. No. PV3144; purchased Invitrogen PV3144; conditions: averaged IC50; TR-FRET binding, 60 min, 22° C.; read-out: TrkA enzyme IC50
Method: TrkA binding activity was determined in a TrkA LanthaScreen™ Eu Kinase Binding Assay. 5 nM His-tagged recombinant human TrkA (6HIS tagged cytoplasmic domain from Invitrogen, Cat. No. PV3144) was incubated with 4 nM Alexa-Fluor® Tracer 236 (Invitrogen Cat. No. PV5592), 2 nM biotinylated anti-His (Invitrogen Cat. No. PV6090), and 2 nM europium-labeled Streptavidin (Invitrogen Cat. No. PV5899), in buffer (25 mM MOPS, pH 7.5, 5 mM MgCl2, 0.005% Triton X-100). Three fold serial dilutions of compounds of the invention in DMSO were added to a final percentage of 2% DMSO. After 60-minute incubation at 22° C., the reaction was measured using the EnVision mutlimode plate reader (PerkinElmer) via TR-FRET dual wavelength detection at […]. The percent of control was calculated using a ratiometric emission factor. The IC50 values were determined by fitting a four parameter model to the percent of control data.
Table A provides averaged IC50 values for compounds of the invention when tested in the assay of Example A, where A represents an averaged IC50 value <100 nM; and B represents an averaged IC50 value from 100 to 1,000 nM.

T2 sequence (Q13976 1-686 isoform Q13976-2): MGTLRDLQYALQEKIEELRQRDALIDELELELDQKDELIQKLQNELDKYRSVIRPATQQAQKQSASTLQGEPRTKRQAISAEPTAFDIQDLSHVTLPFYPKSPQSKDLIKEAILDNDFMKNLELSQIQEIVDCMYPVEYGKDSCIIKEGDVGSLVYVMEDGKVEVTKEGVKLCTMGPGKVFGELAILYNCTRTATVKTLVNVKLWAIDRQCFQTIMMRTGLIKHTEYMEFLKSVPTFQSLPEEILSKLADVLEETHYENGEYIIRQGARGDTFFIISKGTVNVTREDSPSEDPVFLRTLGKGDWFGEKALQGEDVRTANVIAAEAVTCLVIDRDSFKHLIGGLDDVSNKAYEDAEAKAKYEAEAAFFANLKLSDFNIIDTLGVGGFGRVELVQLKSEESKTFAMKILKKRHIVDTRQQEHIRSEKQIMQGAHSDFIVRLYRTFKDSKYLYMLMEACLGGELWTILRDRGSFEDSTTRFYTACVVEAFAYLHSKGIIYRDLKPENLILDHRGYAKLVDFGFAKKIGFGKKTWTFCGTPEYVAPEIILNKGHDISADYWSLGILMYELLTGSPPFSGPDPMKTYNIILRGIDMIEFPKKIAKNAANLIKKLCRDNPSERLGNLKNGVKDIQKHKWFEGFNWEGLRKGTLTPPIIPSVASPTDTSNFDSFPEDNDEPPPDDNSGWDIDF
T12 sequence (P54753 34-998): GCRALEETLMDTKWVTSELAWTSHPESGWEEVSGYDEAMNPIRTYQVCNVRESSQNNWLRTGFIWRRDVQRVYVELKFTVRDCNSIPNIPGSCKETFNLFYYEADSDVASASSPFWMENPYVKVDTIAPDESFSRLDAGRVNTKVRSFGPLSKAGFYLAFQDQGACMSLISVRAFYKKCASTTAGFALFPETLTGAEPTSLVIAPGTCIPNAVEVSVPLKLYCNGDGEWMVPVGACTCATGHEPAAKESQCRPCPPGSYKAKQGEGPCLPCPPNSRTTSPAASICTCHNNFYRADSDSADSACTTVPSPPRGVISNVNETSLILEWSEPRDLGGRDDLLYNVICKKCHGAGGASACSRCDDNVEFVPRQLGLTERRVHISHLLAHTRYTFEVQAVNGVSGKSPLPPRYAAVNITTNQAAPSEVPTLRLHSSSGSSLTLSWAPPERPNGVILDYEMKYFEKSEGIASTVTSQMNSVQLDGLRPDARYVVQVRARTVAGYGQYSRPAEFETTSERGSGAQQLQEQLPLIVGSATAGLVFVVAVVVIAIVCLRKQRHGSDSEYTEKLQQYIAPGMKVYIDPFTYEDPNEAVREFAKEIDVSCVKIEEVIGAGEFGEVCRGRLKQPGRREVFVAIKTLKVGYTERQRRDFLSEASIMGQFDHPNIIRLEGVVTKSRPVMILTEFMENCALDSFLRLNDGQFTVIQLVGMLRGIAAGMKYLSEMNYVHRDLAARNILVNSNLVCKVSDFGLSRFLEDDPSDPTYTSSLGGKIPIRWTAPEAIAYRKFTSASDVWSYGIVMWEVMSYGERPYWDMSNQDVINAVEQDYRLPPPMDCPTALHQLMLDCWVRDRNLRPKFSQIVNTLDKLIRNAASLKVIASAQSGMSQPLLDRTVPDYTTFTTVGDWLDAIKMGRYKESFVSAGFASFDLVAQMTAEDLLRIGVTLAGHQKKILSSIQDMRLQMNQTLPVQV
T15 sequence (P07948 whole entry): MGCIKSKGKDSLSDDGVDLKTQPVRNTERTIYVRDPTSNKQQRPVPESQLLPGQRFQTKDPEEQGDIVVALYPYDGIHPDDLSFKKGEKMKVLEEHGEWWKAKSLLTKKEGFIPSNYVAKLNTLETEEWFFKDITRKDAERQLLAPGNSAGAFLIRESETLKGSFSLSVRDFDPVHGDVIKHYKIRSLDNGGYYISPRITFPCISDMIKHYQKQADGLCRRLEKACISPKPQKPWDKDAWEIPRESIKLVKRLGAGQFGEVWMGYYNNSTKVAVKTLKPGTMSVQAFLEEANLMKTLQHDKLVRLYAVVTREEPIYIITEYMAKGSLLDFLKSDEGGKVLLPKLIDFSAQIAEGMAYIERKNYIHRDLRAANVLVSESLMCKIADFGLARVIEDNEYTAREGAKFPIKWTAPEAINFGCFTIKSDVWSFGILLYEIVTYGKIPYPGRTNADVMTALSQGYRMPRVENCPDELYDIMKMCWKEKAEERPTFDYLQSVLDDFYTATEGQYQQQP
T13 sequence (Q13554 whole entry): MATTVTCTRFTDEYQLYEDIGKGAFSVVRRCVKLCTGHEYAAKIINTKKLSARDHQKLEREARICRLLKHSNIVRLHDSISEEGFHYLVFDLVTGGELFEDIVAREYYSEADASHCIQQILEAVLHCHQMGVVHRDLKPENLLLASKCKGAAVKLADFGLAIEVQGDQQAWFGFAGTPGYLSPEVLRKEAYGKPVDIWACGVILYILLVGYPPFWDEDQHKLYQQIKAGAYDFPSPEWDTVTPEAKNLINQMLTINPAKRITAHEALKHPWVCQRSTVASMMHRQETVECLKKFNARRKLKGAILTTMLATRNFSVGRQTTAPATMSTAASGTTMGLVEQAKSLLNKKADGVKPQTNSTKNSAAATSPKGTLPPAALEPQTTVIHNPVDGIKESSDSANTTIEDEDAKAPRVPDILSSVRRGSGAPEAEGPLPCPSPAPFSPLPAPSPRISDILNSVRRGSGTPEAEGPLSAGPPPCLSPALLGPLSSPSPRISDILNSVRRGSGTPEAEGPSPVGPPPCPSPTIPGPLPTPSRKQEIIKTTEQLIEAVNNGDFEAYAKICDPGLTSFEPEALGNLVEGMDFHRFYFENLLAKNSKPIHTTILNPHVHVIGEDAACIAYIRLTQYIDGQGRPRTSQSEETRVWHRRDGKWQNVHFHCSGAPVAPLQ
T20 sequence (Q96SB4 whole entry): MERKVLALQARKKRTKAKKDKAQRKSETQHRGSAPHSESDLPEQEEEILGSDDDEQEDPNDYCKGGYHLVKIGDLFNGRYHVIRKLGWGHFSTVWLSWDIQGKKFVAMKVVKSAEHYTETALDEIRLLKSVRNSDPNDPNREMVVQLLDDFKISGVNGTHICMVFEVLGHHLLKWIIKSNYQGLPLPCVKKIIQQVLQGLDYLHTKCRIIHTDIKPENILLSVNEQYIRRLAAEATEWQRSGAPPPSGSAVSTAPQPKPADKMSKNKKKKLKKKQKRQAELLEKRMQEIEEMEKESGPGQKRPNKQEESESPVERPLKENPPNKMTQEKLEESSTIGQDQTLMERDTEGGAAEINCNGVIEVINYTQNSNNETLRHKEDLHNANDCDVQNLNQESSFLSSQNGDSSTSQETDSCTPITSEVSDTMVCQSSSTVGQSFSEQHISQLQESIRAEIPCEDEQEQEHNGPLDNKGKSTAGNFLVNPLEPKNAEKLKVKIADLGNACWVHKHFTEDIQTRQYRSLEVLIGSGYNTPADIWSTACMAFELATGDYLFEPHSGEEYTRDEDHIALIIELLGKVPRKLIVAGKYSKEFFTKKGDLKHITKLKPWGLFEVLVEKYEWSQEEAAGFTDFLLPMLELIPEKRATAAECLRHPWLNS
T18 sequence (P49137 whole entry): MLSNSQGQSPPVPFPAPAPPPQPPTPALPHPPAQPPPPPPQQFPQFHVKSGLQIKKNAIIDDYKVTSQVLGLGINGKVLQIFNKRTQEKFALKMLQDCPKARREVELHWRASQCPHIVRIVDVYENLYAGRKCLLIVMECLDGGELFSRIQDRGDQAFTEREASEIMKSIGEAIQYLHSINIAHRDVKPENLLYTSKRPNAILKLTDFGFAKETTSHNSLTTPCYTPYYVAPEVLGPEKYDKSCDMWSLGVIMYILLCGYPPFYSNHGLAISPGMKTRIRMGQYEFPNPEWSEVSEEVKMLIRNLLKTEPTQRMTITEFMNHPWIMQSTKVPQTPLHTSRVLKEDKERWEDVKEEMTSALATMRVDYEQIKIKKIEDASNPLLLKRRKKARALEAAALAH
T23 sequence (P19784 whole entry): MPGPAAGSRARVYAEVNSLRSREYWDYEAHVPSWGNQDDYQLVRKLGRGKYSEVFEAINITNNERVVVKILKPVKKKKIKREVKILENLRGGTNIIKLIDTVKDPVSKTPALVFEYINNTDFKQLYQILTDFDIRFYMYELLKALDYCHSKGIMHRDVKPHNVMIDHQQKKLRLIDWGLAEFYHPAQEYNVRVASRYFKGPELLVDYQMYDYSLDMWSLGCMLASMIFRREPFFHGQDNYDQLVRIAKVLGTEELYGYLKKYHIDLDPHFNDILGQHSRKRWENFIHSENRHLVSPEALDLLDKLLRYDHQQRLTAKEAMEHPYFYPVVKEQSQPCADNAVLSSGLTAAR
T7 sequence (P54759 577-998 limits assumed): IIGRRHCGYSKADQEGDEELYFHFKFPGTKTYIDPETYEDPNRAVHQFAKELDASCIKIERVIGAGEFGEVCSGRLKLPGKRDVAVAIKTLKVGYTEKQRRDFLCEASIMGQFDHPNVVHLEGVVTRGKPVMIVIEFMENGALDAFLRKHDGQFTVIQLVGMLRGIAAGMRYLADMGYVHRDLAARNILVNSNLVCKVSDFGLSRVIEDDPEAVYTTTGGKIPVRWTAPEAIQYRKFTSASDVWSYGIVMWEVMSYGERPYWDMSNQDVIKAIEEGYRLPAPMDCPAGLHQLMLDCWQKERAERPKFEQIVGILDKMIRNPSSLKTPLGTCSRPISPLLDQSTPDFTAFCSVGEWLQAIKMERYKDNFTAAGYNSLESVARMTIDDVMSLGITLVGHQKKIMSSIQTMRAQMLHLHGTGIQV
T9 sequence (Q96PF2 whole entry): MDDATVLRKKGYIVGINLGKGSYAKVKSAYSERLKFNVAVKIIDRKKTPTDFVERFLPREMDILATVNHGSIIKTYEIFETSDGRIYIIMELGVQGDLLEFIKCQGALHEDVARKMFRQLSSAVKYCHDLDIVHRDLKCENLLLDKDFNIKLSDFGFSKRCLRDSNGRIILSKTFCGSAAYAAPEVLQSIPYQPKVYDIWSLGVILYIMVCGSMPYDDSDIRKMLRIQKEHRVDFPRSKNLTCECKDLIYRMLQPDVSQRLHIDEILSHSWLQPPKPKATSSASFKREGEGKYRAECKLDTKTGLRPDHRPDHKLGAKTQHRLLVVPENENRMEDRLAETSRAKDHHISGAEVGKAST

Compound: Cc1c(-c2cnn(C)c2)nn(-c2ccccc2)c1NC(=O)Nc1sc(C(F)(F)F)nc1-c1ccccc1 [Example 2, 1-(1′,4-dimethyl-1-phenyl-1H,1′H-[3,4′-bipyrazol]-5-yl)-3-(4-phenyl-2-(trifluoromethyl)thiazol-5-yl)urea]
- Avg POC [1]: −1 POC
- Avg POC [2]: 119 POC
- Avg POC [3]: 143.5 POC
- Avg POC [4]: 131.5 POC
- Avg POC [5]: 103 POC
- Avg POC [6]: 78.5 POC
- Avg POC [7]: 91 POC
- Avg POC [8]: 103 POC
- Avg POC [9]: 95.5 POC
- Avg POC [10]: 142.5 POC
- Avg POC [11]: 102 POC
- Avg POC [12]: 99 POC
- Avg POC [13]: 72.5 POC
- Avg POC [14]: 102 POC
- Avg POC [15]: 133 POC
- Avg POC [16]: 103.5 POC
- Avg POC [17]: 107 POC
- Avg POC [18]: 107.5 POC
- Avg POC [19]: 143.5 POC
- Avg POC [20]: 81.5 POC
- Avg POC [21]: 114 POC
- Avg POC [22]: 110.5 POC
- Avg POC [23]: 108 POC
- Avg POC [24]: 104 POC
- IC50 [25]: < 100 nM
